Key:
[1] = target: T1, human recombinant C-terminal His-tagged LDHA (Homo sapiens, UniProt P00338); test: Human LDHA enzyme assay; type: biochemical; details: 50 μM pyruvate, 50 μM NADH, no HSA
T1 construct: His (C)
Experimental: (§1) Compounds were dissolved in DMSO and preincubated with human recombinant C-terminal His-tagged LDHA (0.070 μg/mL) for 10 min at room temperature in assay buffer consisting 50 mM Tris, pH 7.5 and 100 mM NaCl in black walled, clear bottom, non-binding 96-well plates. Equal volumes of substrate solution containing 100 μM of pyruvate and 100 μM of NADH in assay buffer was added to each well (final concentration 0.035 μg/mL enzyme, 50 μM pyruvate, 50 μM NADH, and 1% DMSO). For human serum albumin (HSA) shift assay, the compounds were preincubated with the enzyme in assay buffer containing 20% HSA before substrate addition (final concentration 10% HSA). The reaction was monitored at 340 nm on a plate reader (Molecular Devices) in kinetic mode for 15 min. The rate of the reaction was determined by plotting absorbance vs time.

[2] = target: T1, human recombinant C-terminal His-tagged LDHA; test: Human LDHA enzyme assay, human serum albumin (HSA) shift; type: biochemical; details: final concentration 10% HSA
Experimental: as §1

[3] = tested on: fresh primary mouse hepatocytes; test: Primary mouse hepatocyte assay (lactate production); type: cell-based
Experimental: Compounds were evaluated in an ex vivo assay consisting of fresh primary mouse hepatocytes. Hepatocytes were isolated from wild type mice (C57BL/6NCrl from Charles River Labs) using a two-step collagenase perfusion technique which involves a sequential perfusion of anesthetized mice with Hanks' balanced salt solution and collagenase. Following isolation, viable wild type hepatocytes (0.1 M cells/well) were incubated with test compound in presence of pyruvate and compound potency was evaluated by measuring the lactate produced by the cells using liquid chromatography coupled to mass spectrometry. Chromatographic separation was achieved on an XDB-C18 4.6×50 mm column (Agilent, Cat #927975-902) at a flow rate of 1 mL/min Mobile phase A consisted of 0.1% formic acid in water and mobile phase B consisted of acetonitrile. A gradient program was initiated starting at 5% B which was held for 1 minutes, then ramped from 5% to 95% B over 1 minute. After holding at 95% B for 1 minute, the program changed back to 5% B. The column was equilibrated with 5% B for […] before the next injection. The mass spectrometer was operated in negative mode with electrospray ionization. The following transition along with their collision energy (CE) were used: 89→43 (CE: −16 V) for lactate and 92→45 (CE: −16 V) for ^13C3-Lactate (internal standard).

[4] = Liver-targeted tissue distribution profile study in rats; type: in vivo, Sprague Dawley rats; details: rat, single 10 mg/kg PO
Experimental: Plasma and liver (target organ) concentrations of test compounds were determined in rats following a single per os (PO) administration of the test compounds. Male Sprague Dawley rats (6-8 weeks of age, Charles River Labs) were fasted overnight and a single dose of test compounds (10 mg/kg; as a suspension in 0.5% methyl cellulose) was administered by PO gavage. Rats were then sacrificed at 4 and 24 h after administration of the test compounds, and plasma and liver tissue samples were collected. Liver tissue samples were homogenized in 5 volumes of water:acetonitrile (50/50; v/v) mixture using a bead mill homogenizer. Plasma and liver homogenate samples were processed by protein precipitation using acetonitrile and the concentrations of the test compounds were determined by liquid chromatography-tandem mass spectrometry (SciEx triple quad 5500+ with Exion UPLC).
Liver and plasma exposures at the 4 h and 24 h timepoints for the various compounds are described in Table 5 below. Measured compound concentrations are as follows: ++++>10 μM; 10 μM≥+++>5 μM; 5 μM≥++>1 μM; 1 μM≥+>0.25 μM; and 0.25 μM≥−.

[5] = Run at 0.4M cells/well concentration of hepatocytes

IC50 [1] [µM]	IC50 [2] [µM]	Measured Compound Concentrations Liver - 4 h [4]	Measured Compound Concentrations Liver - 24 h [4]	Measured Compound Concentrations Plasma - 4 h [4]	Measured Compound Concentrations Plasma - 24 h [4]	Compound	IC50 ([3]; 0.1 M cells/well) [µM]	IC50 [3, 5] [µM]
< 0.001	0.01 to 0.1	+++ (10 μM≥+++>5 μM)	− (0.25 μM≥−)	− (0.25 μM≥−)	− (0.25 μM≥−)	NS(=O)(=O)c1ccc(Cc2c(-c3ccccc3F)nn(-c3nc(C(=O)O)cs3)c2CC2CC2)cc1F [Example 25]	0.1 to 0.25	
< 0.001	0.001 to 0.01					COc1cc(-c2nn(-c3nc(C(=O)O)cs3)c(CC3CC3)c2Cc2ccc(S(N)(=O)=O)c(F)c2)ccc1C#N [Example 23, 2-(3-(4-cyano-3-methoxyphenyl)-5-(cyclopropylmethyl)-4-(3-fluoro-4-sulfamoylbenzyl)-1H-pyrazol-1-yl)thiazole-4-carboxylic acid]	< 0.1	
< 0.001	0.01 to 0.1	++ (5 μM≥++>1 μM)	− (0.25 μM≥−)	− (0.25 μM≥−)	− (0.25 μM≥−)	NS(=O)(=O)c1ccc(Cc2c(-c3cc(Cl)cc(Cl)c3)nn(-c3nc(C(=O)O)cs3)c2CC2CC2)cc1F [Example 26, 2-(5-(cyclopropylmethyl)-3-(3,5-dichlorophenyl)-4-(3-fluoro-4-sulfamoylbenzyl)-1H-pyrazol-1-yl)thiazole-4-carboxylic acid]	0.1 to 0.25	
< 0.001	0.001 to 0.01	+++ (10 μM≥+++>5 μM)	− (0.25 μM≥−)	− (0.25 μM≥−)	− (0.25 μM≥−)	NS(=O)(=O)c1ccc(Cc2c(-c3cccc(Cl)c3)nn(-c3nc(C(=O)O)cs3)c2CC2CC2)cc1F [Example 17, 2-(3-(3-chlorophenyl)-5-(cyclopropylmethyl)-4-(3-fluoro-4-sulfamoylbenzyl)-1H-pyrazol-1-yl)thiazole-4-carboxylic acid]	< 0.1	
0.001 to 0.01	0.001 to 0.01					COc1cc(F)cc(-c2nn(-c3nc(C(=O)O)cs3)c(CC3CC3)c2Cc2ccc(S(N)(=O)=O)c(F)c2)c1 [Example 24, 2-(5-(cyclopropylmethyl)-4-(3-fluoro-4-sulfamoylbenzyl)-3-(3-fluoro-5-methoxyphenyl)-1H-pyrazol-1-yl)thiazole-4-carboxylic acid]	< 0.1	
< 0.001	0.001 to 0.01	++++ (++++>10 μM)	− (0.25 μM≥−)	− (0.25 μM≥−)	− (0.25 μM≥−)	NS(=O)(=O)c1ccc(Cc2c(-c3ccccc3)nn(-c3nc(C(=O)O)cs3)c2CC2CC2)cc1F [Example 20, 2-(5-(cyclopropylmethyl)-4-(3-fluoro-4-sulfamoylbenzyl)-3-phenyl-1H-pyrazol-1-yl)thiazole-4-carboxylic acid]	< 0.1	
< 0.001	0.001 to 0.01	+++ (10 μM≥+++>5 μM)	− (0.25 μM≥−)	− (0.25 μM≥−)	− (0.25 μM≥−)	NS(=O)(=O)c1ccc(Cc2c(-c3cc(F)c(F)c(F)c3)nn(-c3nc(C(=O)O)cs3)c2CC2CC2)cc1F [Example 28, 2-(5-(Cyclopropylmethyl)-4-(3-fluoro-4-sulfamoylbenzyl)-3-(3,4,5-trifluorophenyl)-1H-pyrazol-1-yl)thiazole-4-carboxylic acid]	< 0.1	
< 0.001	0.001 to 0.01					NS(=O)(=O)c1c(F)cc(Cc2c(-c3ccc(F)cc3)nn(-c3nc(C(=O)O)cs3)c2CC2CC2)cc1F [Example 27, 2-(5-(Cyclopropylmethyl)-4-(3,5-difluoro-4-sulfamoylbenzyl)-3-(4-fluorophenyl)-1H-pyrazol-1-yl)thiazole-4-carboxylic acid]	0.1 to 0.25	

Continued, compound first:

Compound	IC50 [1] [µM]	IC50 [2] [µM]	Measured Compound Concentrations Liver - 4 h [4]	Measured Compound Concentrations Liver - 24 h [4]	Measured Compound Concentrations Plasma - 4 h [4]	Measured Compound Concentrations Plasma - 24 h [4]	IC50 ([3]; 0.1 M cells/well) [µM]	IC50 [3, 5] [µM]
NS(=O)(=O)c1ccc(Cc2c(-c3ccc(F)cc3)nn(-c3nc(C(=O)O)co3)c2CC2CC2)cc1F [Example 9, 2-(5-(Cyclopropylmethyl)-4-(3-fluoro-4-sulfamoylbenzyl)-3-(4-fluorophenyl)-1H-pyrazol-1-yl)oxazole-4-carboxylic acid]	< 0.001	0.001 to 0.01	++ (5 μM≥++>1 μM)	− (0.25 μM≥−)	− (0.25 μM≥−)	− (0.25 μM≥−)		0.1 to 0.25
NS(=O)(=O)c1ccc(Cc2c(-c3ccc(Cl)cc3)nn(-c3nc(C(=O)O)cs3)c2CC2CC2)cc1F [Example 16, 2-(3-(4-chlorophenyl)-5-(cyclopropylmethyl)-4-(3-fluoro-4-sulfamoylbenzyl)-1H-pyrazol-1-yl)thiazole-4-carboxylic acid]	< 0.001	0.01 to 0.1	++ (5 μM≥++>1 μM)	− (0.25 μM≥−)	− (0.25 μM≥−)	− (0.25 μM≥−)		< 0.1
NS(=O)(=O)c1ccc(Cc2c(-c3ccc(F)c(F)c3)nn(-c3nc(C(=O)O)cs3)c2CC2CC2)cc1F [Example 12, 2-(5-(Cyclopropylmethyl)-3-(3,4-difluorophenyl)-4-(3-fluoro-4-sulfamoylbenzyl)-1H-pyrazol-1-yl)thiazole-4-carboxylic acid]	< 0.001	0.001 to 0.01	+++ (10 μM≥+++>5 μM)	− (0.25 μM≥−)	− (0.25 μM≥−)	− (0.25 μM≥−)	< 0.1	
NS(=O)(=O)c1ccc(Cc2c(-c3cc(F)cc(F)c3)nn(-c3nc(C(=O)O)cs3)c2CC2CC2)cc1F [Example 15, 2-(5-(cyclopropylmethyl)-3-(3,5-difluorophenyl)-4-(3-fluoro-4-sulfamoylbenzyl)-1H-pyrazol-1-yl)thiazole-4-carboxylic acid]	< 0.001	0.001 to 0.01	++++ (++++>10 μM)	+ (1 μM≥+>0.25 μM)	− (0.25 μM≥−)	− (0.25 μM≥−)		< 0.1
NS(=O)(=O)c1ccc(Cc2c(-c3cccc(F)c3)nn(-c3nc(C(=O)O)cs3)c2CC2CC2)cc1F [Example 14, 2-(5-(cyclopropylmethyl)-4-(3-fluoro-4-sulfamoylbenzyl)-3-(3-fluorophenyl)-1H-pyrazol-1-yl)thiazole-4-carboxylic acid]	< 0.001	0.001 to 0.01	++++ (++++>10 μM)	+ (1 μM≥+>0.25 μM)	− (0.25 μM≥−)	− (0.25 μM≥−)		< 0.1
NS(=O)(=O)c1ccc(Cc2c(-c3ccc(F)cc3)nn(-c3nc(C(=O)O)cs3)c2CC2CC2)cc1F [Example 1, 2-(5-(cyclopropylmethyl)-4-(3-fluoro-4-sulfamoylbenzyl)-3-(4-fluorophenyl)-1H-pyrazol-1-yl)thiazole-4-carboxylic acid]	< 0.001	0.001 to 0.01	++++ (++++>10 μM)	+ (1 μM≥+>0.25 μM)	− (0.25 μM≥−)	− (0.25 μM≥−)	< 0.1	

Source: patent US20230183228A1, “SUBSTITUTED PYRAZOLYL COMPOUNDS AND METHODS OF USE THEREOF” (Chinook Therapeutics Canada, Inc., priority 2020, published 2023)
